These results are taken from patent EP2628479A1, “Cosmetic use of climbazol” (Henkel AG&Co. KGAA, priority 2011, dated 2013).

For the experiment, the system named is Co-Kultur-System. The experiment is described as follows: Collagen neosynthesis in co-culture system (2D fibroblast culture with 3D epidermis model insert), P1 NP secreted into the medium. The class given is cell-based. The note with it: unbehandelt = 107. The source says:
Zum Nachweis der Kollagen-Neusynthese wurde ein Co-Kultur-System verwendet, das aus einer zweidimensionalen Fibroblasten-Kultur besteht, auf die in einem Insert ein dreidimensionales Epidermismodell aufgesetzt wurde. Über das Nährmedium kann ein Stoffaustausch zwischen den Fibroblasten und den Keratinocyten des Epidermismodells erfolgen.
Als Kontrollen für die Syntheseinduktion wurden Retinsäure und Retinol eingesetzt.

`CC(C)(C)C(=O)C(Oc1ccc(Cl)cc1)n1ccnc1` (stereo not drawn) [Climbazol, Imidazolyl-1-(4-chlorophenoxy)-3,3-dimethylbutane-2-one]: the “P1 NP” value (Climbazol 0,005%) was 135 µg/mL. In the case of `CC1=C(/C=C/C(C)=C/C=C/C(C)=C/C(=O)O)C(C)(C)CCC1` [Retinsäure], where the note is “Retinsäure 5µM”, the “P1 NP” value turned out to be 200 µg/mL. As to `CC1=C(/C=C/C(C)=C/C=C/C(C)=C/CO)C(C)(C)CCC1` [Retinol], the “P1 NP” value (Retinol 5µM) turned out to be 146 µg/mL.
